Laboratory results taken from patent publication US9695155B2, “Herbicidal substituted pyrimidinyloxy benzene compounds” (E. I. DU PONT DE NEMOURS AND COMPANY, priority 2013, dated 2017).

What was measured:
giant foxtail [1] = assay: Test A postemergence; format: in vivo, Setaria faberii; settings: 0 to 100 scale where 0 is no effect and 100 is complete control
Outline: (§1)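 Compounds in non-phytotoxic solvent with surfactant applied as soil spray preemergence, or postemergence to plants 2-10 cm at one- to two-leaf stage, in loam/sand. After approximately 10 days in greenhouse, injury rated visually versus untreated controls, 0 (no effect) to 100 (complete control).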

corn [2] = assay: Test A postemergence; format: in vivo, Zea mays; settings: 0 to 100 scale where 0 is no effect and 100 is complete control
Outline: as §1

corn [3] = assay: Test C preemergence; format: in vivo, Zea mays; settings: for Corn plant response rating: preemergence; for Plant response rating, Corn: Preemergence, 31 g ai/ha, scale 0 to 100, 0 no effect, 100 complete control
Outline: (§2)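 Seeds are planted in blended loam soil and sand and treated preemergence, while seedlings in a peat moss/vermiculite medium receive postemergence sprays at 2 to 18 cm height. All plants stay in the greenhouse for 13 to 15 days before visual comparison with controls on a 0–100 scale.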

large (Lg) crabgrass = assay: Test C preemergence; format: in vivo, Digitaria sanguinalis; settings: for Crabgrass, Large plant response rating: preemergence; for Plant response rating, Crabgrass, Large: Preemergence, 31 g ai/ha, scale 0 to 100, 0 no effect, 100 complete control
Outline: as §2

lambsquarters = assay: Test C preemergence; format: in vivo, Chenopodium album; settings: for Lambsquarters plant response rating: preemergence; for Plant response rating, Lambsquarters: Preemergence, 31 g ai/ha, scale 0 to 100, 0 no effect, 100 complete control
Outline: as §2

pigweed = assay: Test C preemergence; format: in vivo, Amaranthus retroflexus; settings: for Pigweed plant response rating: preemergence; for Plant response rating, Pigweed: Preemergence, 31 g ai/ha, scale 0 to 100, 0 no effect, 100 complete control
Outline: as §2

blackgrass = assay: Test C postemergence; format: in vivo, Alopecurus myosuroides; settings: for Blackgrass plant response rating: 16 g ai/ha, visual rating; for Blackgrass plant response rating / Plant response rating (0 to 100), Blackgrass: postemergence; for Blackgrass plant response rating / Plant response rating, Blackgrass: scale 0 to 100 (0 no effect, 100 complete control); for Plant response rating (0 to 100), Blackgrass: 125 g ai/ha; for Plant response rating, Blackgrass: Postemergence
Outline: as §2

wheat, winter = assay: Test C postemergence; format: in vivo, Triticum aestivum; settings: for Plant response rating (0 to 100), Wheat: 125 g ai/ha, postemergence; for Plant response rating, Wheat: Postemergence, scale 0 to 100 (0 no effect, 100 complete control)
Outline: as §2

corn [4] = assay: Test C postemergence; format: in vivo, Zea mays; settings: for Corn plant response rating: 16 g ai/ha, visual rating; for Corn plant response rating / Plant response rating (0 to 100), Corn: postemergence; for Corn plant response rating / Plant response rating, Corn: scale 0 to 100 (0 no effect, 100 complete control); for Plant response rating (0 to 100), Corn: 125 g ai/ha; for Plant response rating, Corn: Postemergence
Outline: as §2

giant foxtail [5] = assay: Test C postemergence; format: in vivo, Setaria faberii; settings: for Foxtail, Giant plant response rating: 16 g ai/ha, visual rating; for Foxtail, Giant plant response rating / Plant response rating (0 to 100), Foxtail, Giant: postemergence; for Foxtail, Giant plant response rating / Plant response rating, Foxtail, Giant: scale 0 to 100 (0 no effect, 100 complete control); for Plant response rating (0 to 100), Foxtail, Giant: 125 g ai/ha; for Plant response rating, Foxtail, Giant: Postemergence
Outline: as §2

yellow nutsedge = assay: Test C postemergence; format: in vivo, Cyperus esculentus; settings: for Plant response rating (0 to 100), Nutsedge, Yellow: 125 g ai/ha, postemergence; for Plant response rating, Nutsedge, Yellow: Postemergence, scale 0 to 100 (0 no effect, 100 complete control)
Outline: as §2

barnyardgrass = assay: Test C postemergence; format: in vivo, Echinochloa crus-galli; settings: for Barnyardgrass plant response rating: 16 g ai/ha, visual rating; for Barnyardgrass plant response rating / Plant response rating (0 to 100), Barnyardgrass: postemergence; for Barnyardgrass plant response rating / Plant response rating, Barnyardgrass: scale 0 to 100 (0 no effect, 100 complete control); for Plant response rating (0 to 100), Barnyardgrass: 125 g ai/ha; for Plant response rating, Barnyardgrass: Postemergence
Outline: as §2

kochia = assay: Test C postemergence; format: in vivo, Kochia scoparia; settings: for Kochia plant response rating: 16 g ai/ha, visual rating; for Kochia plant response rating / Plant response rating (0 to 100), Kochia: postemergence; for Kochia plant response rating / Plant response rating, Kochia: scale 0 to 100 (0 no effect, 100 complete control); for Plant response rating (0 to 100), Kochia: 125 g ai/ha; for Plant response rating, Kochia: Postemergence
Outline: as §2

[6] = 16 g ai/ha, scale 0 to 100 (0 no effect, 100 complete control)
[7] = 62 g ai/ha, scale 0 (no effect) to 100 (complete control)
[8] = 125 g ai/ha, scale 0 (no effect) to 100 (complete control)

CCOc1cnn(-c2c(C#N)cccc2Oc2ncc(F)cn2)c1 [Compound 89]
Plant response rating, Foxtail, Giant (giant foxtail [1]; 125 g ai/ha): 80
Plant response rating, Foxtail, Giant (giant foxtail [1]; 500 g ai/ha): 90
Plant response rating, Corn (corn [2]; 125 g ai/ha): 60
Plant response rating, Corn (corn [2]; 500 g ai/ha): 90
Corn plant response rating (corn [3]; [6]): 0
Corn plant response rating (corn [3]; [7]): 0
Corn plant response rating (corn [3]; [8]): 5
Plant response rating, Corn (corn [3]): 0
Crabgrass, Large plant response rating (large (Lg) crabgrass; [6]): 80
Crabgrass, Large plant response rating (large (Lg) crabgrass; [7]): 100
Crabgrass, Large plant response rating (large (Lg) crabgrass; [8]): 100
Plant response rating, Crabgrass, Large (large (Lg) crabgrass): 100
Lambsquarters plant response rating (lambsquarters; [6]): 45
Lambsquarters plant response rating (lambsquarters; [7]): 95
Lambsquarters plant response rating (lambsquarters; [8]): 100
Plant response rating, Lambsquarters (lambsquarters): 80
Pigweed plant response rating (pigweed; [6]): 55
Pigweed plant response rating (pigweed; [7]): 100
Pigweed plant response rating (pigweed; [8]): 100
Plant response rating, Pigweed (pigweed): 90
Blackgrass plant response rating (blackgrass; 13 to 15 days): 0
Plant response rating (0 to 100), Blackgrass (blackgrass): 5
Plant response rating, Blackgrass (blackgrass; 31 g ai/ha, 13 to 15 days): 0
Plant response rating, Blackgrass (blackgrass; 62 g ai/ha): 5
Plant response rating (0 to 100), Wheat (wheat, winter): 5
Plant response rating, Wheat (wheat, winter; 31 g ai/ha, 13 to 15 days): 0
Plant response rating, Wheat (wheat, winter; 62 g ai/ha): 0
Corn plant response rating (corn [4]; 13 to 15 days): 5
Plant response rating (0 to 100), Corn (corn [4]): 5
Plant response rating, Corn (corn [4]; 31 g ai/ha, 13 to 15 days): 5
Plant response rating, Corn (corn [4]; 62 g ai/ha): 5
Foxtail, Giant plant response rating (giant foxtail [5]; 13 to 15 days): 5
Plant response rating (0 to 100), Foxtail, Giant (giant foxtail [5]): 10
Plant response rating, Foxtail, Giant (giant foxtail [5]; 31 g ai/ha, 13 to 15 days): 5
Plant response rating, Foxtail, Giant (giant foxtail [5]; 62 g ai/ha): 5
Plant response rating (0 to 100), Nutsedge, Yellow (yellow nutsedge): 5
Plant response rating, Nutsedge, Yellow (yellow nutsedge; 31 g ai/ha, 13 to 15 days): 5
Plant response rating, Nutsedge, Yellow (yellow nutsedge; 62 g ai/ha): 20
Barnyardgrass plant response rating (barnyardgrass; 13 to 15 days): 0
Plant response rating (0 to 100), Barnyardgrass (barnyardgrass): 5
Plant response rating, Barnyardgrass (barnyardgrass; 31 g ai/ha, 13 to 15 days): 5
Plant response rating, Barnyardgrass (barnyardgrass; 62 g ai/ha): 5
Kochia plant response rating (kochia; 13 to 15 days): 45
Plant response rating (0 to 100), Kochia (kochia): 50
Plant response rating, Kochia (kochia; 31 g ai/ha, 13 to 15 days): 50
Plant response rating, Kochia (kochia; 62 g ai/ha): 60

CCOc1cnn(-c2c(C#N)cccc2Oc2ncc(Cl)cn2)c1 [Compound 92]
Plant response rating, Foxtail, Giant (giant foxtail [1]; 125 g ai/ha): 80
Plant response rating, Foxtail, Giant (giant foxtail [1]; 500 g ai/ha): 90
Plant response rating, Corn (corn [2]; 125 g ai/ha): 50
Plant response rating, Corn (corn [2]; 500 g ai/ha): 80
Corn plant response rating (corn [3]; [6]): 0
Corn plant response rating (corn [3]; [7]): 5
Corn plant response rating (corn [3]; [8]): 65
Plant response rating, Corn (corn [3]): 0
Crabgrass, Large plant response rating (large (Lg) crabgrass; [6]): 90
Crabgrass, Large plant response rating (large (Lg) crabgrass; [7]): 100
Crabgrass, Large plant response rating (large (Lg) crabgrass; [8]): 100
Plant response rating, Crabgrass, Large (large (Lg) crabgrass): 100
Lambsquarters plant response rating (lambsquarters; [6]): 65
Lambsquarters plant response rating (lambsquarters; [7]): 100
Lambsquarters plant response rating (lambsquarters; [8]): 98
Plant response rating, Lambsquarters (lambsquarters): 98
Pigweed plant response rating (pigweed; [6]): 90
Pigweed plant response rating (pigweed; [7]): 100
Pigweed plant response rating (pigweed; [8]): 100
Plant response rating, Pigweed (pigweed): 85
Blackgrass plant response rating (blackgrass; 13 to 15 days): 0
Plant response rating (0 to 100), Blackgrass (blackgrass): 35
Plant response rating, Blackgrass (blackgrass; 31 g ai/ha, 13 to 15 days): 0
Plant response rating, Blackgrass (blackgrass; 62 g ai/ha): 10
Plant response rating (0 to 100), Wheat (wheat, winter): 5
Plant response rating, Wheat (wheat, winter; 31 g ai/ha, 13 to 15 days): 0
Plant response rating, Wheat (wheat, winter; 62 g ai/ha): 0
Corn plant response rating (corn [4]; 13 to 15 days): 5
Plant response rating (0 to 100), Corn (corn [4]): 5
Plant response rating, Corn (corn [4]; 31 g ai/ha, 13 to 15 days): 5
Plant response rating, Corn (corn [4]; 62 g ai/ha): 5
Foxtail, Giant plant response rating (giant foxtail [5]; 13 to 15 days): 5
Plant response rating (0 to 100), Foxtail, Giant (giant foxtail [5]): 10
Plant response rating, Foxtail, Giant (giant foxtail [5]; 31 g ai/ha, 13 to 15 days): 5
Plant response rating, Foxtail, Giant (giant foxtail [5]; 62 g ai/ha): 5
Plant response rating (0 to 100), Nutsedge, Yellow (yellow nutsedge): 5
Plant response rating, Nutsedge, Yellow (yellow nutsedge; 31 g ai/ha, 13 to 15 days): 5
Plant response rating, Nutsedge, Yellow (yellow nutsedge; 62 g ai/ha): 5
Barnyardgrass plant response rating (barnyardgrass; 13 to 15 days): 5
Plant response rating (0 to 100), Barnyardgrass (barnyardgrass): 10
Plant response rating, Barnyardgrass (barnyardgrass; 31 g ai/ha, 13 to 15 days): 5
Plant response rating, Barnyardgrass (barnyardgrass; 62 g ai/ha): 5
Kochia plant response rating (kochia; 13 to 15 days): 40
Plant response rating (0 to 100), Kochia (kochia): 85
Plant response rating, Kochia (kochia; 31 g ai/ha, 13 to 15 days): 60
Plant response rating, Kochia (kochia; 62 g ai/ha): 80
